Test system: isolated portion of the phytopathogen with a reduced sensitivity (Plasmopara viticola)
Assay: Control of Plasmopara viticola on grapes, preventive leaf application (greenhouse test), isolate with reduced sensitivity
Assay type: in vivo
Settings: fungicide alone at 0.05 ppm, scale 100 to 0
Method: Efficacy of Compound Nr. 1 Mixed with Another Fungicidal Compound in the Control of Plasmopara viticola on Grapes in Preventive Leaf Application (Greenhouse Test) Table 3.
Leaves of cultivar Dolcetto grape vines, cultivated in vases, in a conditioned environment (20±1° C., 70% relative humidity) are treated by spraying both sides of the leaves with compound Nr. 1 mixed with another fungicide dispersed in a hydroacetone solution at 10% by volume of acetone containing 0.3% of tween 20.
After remaining 24 hours in a conditioned environment, the plants are infected on the lower side with an aqueous suspension of spores of Plasmopara viticola (200,000 spores per cm^3).
The plants are kept in a humidity saturated environment, at 21° C., for the incubation period of the fungus and, at the end of this period (7 days), the fungicidal activity is evaluated according to a percentage evaluation scale from 100 (healthy plant) to 0 (completely infected plant).
From the data indicated in Table 3, the synergic effect of the mixtures, consisting of compound Nr. […]
When the fungicidal activity experimentally evaluated is greater than the value of E, this activity should be considered as a synergic effect.

In the case of COCC(=O)N(c1c(C)cccc1C)C(C)C(=O)OC (stereo not shown) [Metalaxyl, metalaxyl], the “Activity (y)” value is reported as 12.

From US8637058B2, “Compositions based on cupric salts, cupric salts and their use for controlling phytopathogens” (priority 2001, dated 2014)
